Each structure is given as a SMILES string. Entries after “also recorded” stand apart in the source; their conditions may differ.

Data set [1] deals with FV-LSCs transplanted into BALB/c-Stk^−/− mice.
Procedure: Transplant of FV-LSCs into BALB/c-Stk^−/− mice: FV-LSCs were generated as described above. 2.5×10^5 FV-LSCs were transplanted into BALB/c-Stk^−/− mice by retro-orbital injection. Six weeks after transplant the mice were treated with CyPGs or vehicle control as indicated in the text.
Treatment of Mice with PGs: Mice with FV-induced erythroleukemia or MIGR-BCR-ABL induced CML were treated on the indicated days with CyPGs. Mice were treated with a daily intraperitoneal injection of Δ^12-PGJ3 (0.01-0.1 mg/kg), 15d-PGJ2 (0.1 mg/kg), or 9,10-dihydro-15d-PGJ2 (0.1 mg/kg) for 7 days. All three compounds were formulated with hydroxypropyl-β-cyclodextrin (30% w/v; Sigma; vehicle control).
Stk^−/− mice are resistant to Friend virus infection so the leukemia developed by the transplanted mice is result of the transplanted LSCs and not FV infection. […] LSCs sorted from the spleens of FV-infected mice were transplanted into Stk^−/− mice (on a Balb/c background). After 6 weeks such mice were treated daily for 1 week with vehicle (hydroxypropyl-β-cyclodextrin), 15d-PGJ2 (0.05 mg/kg), or 9,10-dihydro-15d-PGJ2 (0.05 mg/kg) by intraperitoneal injection. The mice were sacrificed 51 days post LSC transplantation for analysis. An analysis of spleens of mice comparing splenomegaly in vehicle, 15d-PGJ2, or 9,10-dihydro-15d-PGJ2 treated transplanted mice was performed. Spleen weight compared to control (untransplanted mice) after treatment and WBC counts in the peripheral blood of the mice after treatment were examined, and a flow cytometric analysis of the spleen of untransplanted and LSC transplanted mice after treatment was performed. All data were mean±s.e.m. *p<0.05 compared to control or 9,10-dihydro-15d-PGJ2 treated groups. N=5 per group.
The next data set concerns p53. As to the kind of experiment: p53 expression in BCR-ABL+ LSCs treated ex vivo. It is filed as cell-based, mouse. The note with it: 25 nM ex vivo.
For data set [2], the target named is T1, ligand-binding domain of human PPAPγ fused to yeast GAL4 DNA binding domain (Homo sapiens, UniProt P37231).
T1 construct: expressed in transfected cells; host or cells: HEK293T
T1 sequence (P37231 238-503 limits assumed): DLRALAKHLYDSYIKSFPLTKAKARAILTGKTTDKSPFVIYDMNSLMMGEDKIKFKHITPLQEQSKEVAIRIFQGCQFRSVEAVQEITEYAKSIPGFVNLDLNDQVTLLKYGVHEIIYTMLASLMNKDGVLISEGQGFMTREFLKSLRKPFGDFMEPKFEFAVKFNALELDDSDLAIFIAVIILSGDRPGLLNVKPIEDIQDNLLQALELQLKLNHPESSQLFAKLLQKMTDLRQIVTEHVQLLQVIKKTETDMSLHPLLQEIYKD
As to the kind of experiment: PPARγ reporter assay in HEK293T cells (GAL4 fusion, pGalRE-Luc). It is filed as cell-based. The note with it: 0.01 μM to 1.0 μM. In general terms: In a reporter assay the amount or activity of a reporter protein is the signal.

The subject of data set [3] is imatinib-resistant BCR-ABL(GFP)+ cells. As to the kind of experiment: Imatinib-resistant BCR-ABL(GFP)+ LSCs treated ex vivo. The data set is classed as cell-based, mouse. As to conditions: splenocytes after imatinib i.p. 1 wk and 1 week washout; 25 nM, 24 h. The procedure:
FIG. 8 is a graph showing that imatinib-resistant BCR-ABL(GFP)+ cells are targeted by Δ^12-PGJ3. […] The mice were followed for the development of leukemia. Mice that developed leukemia were euthanized and spleens were used as the source of LSCs.
GFP+ LSCs were analyzed by flow cytometry.

Data set [4] deals with NF-κB. In words: NF-κB gel shift in LPS-treated RAW264.7 macrophages. The note with it: 0.25 or 1.0 μM, then LPS 100 ng/mL 4 h. The data set is classed as cell-based, mouse. The procedure: (§1) The effect of Δ^12-PGJ3 on NF-κB and PPAPγ was examined. RAW264.7 macrophages were pretreated with DMSO, Δ^12-PGJ3 at 0.25, or 1.0 μM and subsequently stimulated with 100 ng/mL E. coli LPS for 4 h. The nuclear extracts were prepared and the binding of NΦκB to a ^32P-labeled consensus double stranded oligonucleotide probe was examined using gel shift analysis. NS=non-specific band. Lanes 1-5 represent untreated, LPS alone, DMSO+LPS, Δ^12-PGJ3 (0.25 μM)+LPS, and Δ^12-PGJ3 (1 μM)+LPS, respectively. BCR-ABL LSCs were sorted from spleens, plated, and treated with PBS, 25 nM Δ^12-PGJ3, or 9,10-dihydro 15d-PGJ2 for 0, 2 or 6 h. The cells were harvested and nuclear extracts were prepared using standard techniques. Ten μg of nuclear protein was used from each sample for the gel-shift reaction. As a positive control for NF-κB, nuclear extract from LPS-treated murine (RAW264.7) macrophages was used. Anti-p50 Ab was used with this positive control for a supershift, and excess ‘cold’ probe was used with the positive control as a ‘cold competitor’. A Western blot analysis was performed of the above-mentioned nuclear extracts from BCR-ABL LSCs treated with PBS, Δ^12-PGJ3 or 9,10-dihydro-15d-PGJ2 for various time periods (0-6 h) probed with anti-p65 and anti-β-actin antibodies. […]

Data set [5] deals with FV-LSCs (M34^+Kit^+Sca1^+). In words: Apoptosis of FV-LSCs treated ex vivo (annexin V, flow cytometry). The data set is classed as cell-based, mouse. As to conditions: 36 h.
Procedure: On day 14 after infection, spleens were isolated and a single cell suspension of spleen cells was generated. The cells were filtered through a 70 μm sterile filter and flow-through cells were resuspended in RBC lysis buffer followed by centrifugation. Leukemia stem cells were isolated by FACS. Spleen cells were labeled with anti-Kit, Sca1 (BioLegend, San Diego, Calif.) and M34 antibodies. […] As indicated M34^+Kit^+Sca1^+ cells were cultured in Methocult media (Stem Cell Technologies Vancouver BC) M3334 supplemented with 200 ng/ml Sonic Hedgehog (Shh), 15 ng/ml bone morphogenetic protein-4 (BMP4) (both from R&D Systems Minneapolis, Minn.), and 50 ng/ml stem cell factor (SCF; Peprotech).
The cells were stained with annexin V-FITC and analyzed by flow cytometry. […] Means±s.e.m. *P<0.001 compared to vehicle (PBS). […] Inset: Effect of rosiglitazone on the apoptosis of LSC. Rosiglitazone (0.1-2.0 μM) was incubated with LSC in the culture media for 36 h as described earlier and the cells were subjected to annexin-V staining followed by flow cytometry. […] LSC were treated ex vivo with indicated concentrations of each compound for 36 h. Mean±s.e.m. shown *P<0.001.
Data set [6] relates to NF-κB. In words: NF-κB activation in sorted BCR-ABL+ LSCs (EMSA, Western blot). As to conditions: 25 nM, 0-6 h. The data set is classed as cell-based, mouse. On the procedure:
as §1
For orientation: A gel shift assay detects complexes by their altered migration in electrophoresis.

The subject of data set [7] is BCR-ABL^+LSC (Kit^+Sca1^+Lin^−GFP^+). In words: Apoptosis of BCR-ABL+ LSCs treated ex vivo (annexin V, flow cytometry). It is filed as cell-based, mouse. The procedure:
Apoptosis. Apoptosis of LSCs was performed using annexin V as described below in Supplementary Information and Methods.
Apoptosis. The LSCs were diluted in DMEM, resuspended using a 16-gauge needle, and collected by centrifugation. 1×10^5 cells were resuspended in 200 μl of binding buffer (0.1 M HEPES with 1.4 M NaCl, 25 mM CaCl2, pH 7.4). Annexin V FITC (BD Biosciences) was incubated with cells for 15 min on ice followed by flow cytometric analysis.
The ability of CyPGs derived from arachidonic acid (2 series PGs) to induce apoptosis was tested in cultures of LSCs from FV infected mice and in the murine CML model. […] 15d-PGJ2 is known as a PPAPγ agonist. […] In FIG. 7C Δ^12-PGJ3, 15d-PGJ2 or 9,10-dihydro-15d-PGJ2 are tested for their ability to induce apoptosis in a murine CML model. […] The cells were stained with annexin V-FITC and analyzed by flow cytometry. Representative of N=4. […] Inset: Effect of rosiglitazone on the apoptosis of LSC. Rosiglitazone (0.1-2.0 μM) was incubated with LSC in the culture media for 36 h as described earlier and the cells were subjected to annexin-V staining followed by flow cytometry. […] LSC were treated ex vivo with indicated concentrations of each compound for 36 h.
Following 36 h of incubation, apoptotic cells were quantified by annexin V staining. […] In a related study to address if Δ^12-PGJ3 treatment would cause any degranulation of granulocytes, a rat basophilic cell line ([…]) was treated with 100 nM Δ^12-PGJ3 and the degranulation was followed by quantitating the release of histamine and a second marker of degranulation, hexoseaminidase.
In this experiment, 500,000 BCR-ABL+ LSCs were plated in a 24-well plate followed and were treated with 25 nM PGD2Me or 100 nM ZK118182 (both are agonists of DP) for 24 h. GFP^+ cells were analyzed by flow cytometry. These agonists were purchased from Cayman Chemicals, MI.

As to `CC/C=C\C[C@H](O)C/C=C1/C(=O)C=C[C@@H]1C/C=C\CCCC(=O)O` [Δ^12-PGJ3, Δ^12-prostaglandin J3], the leukocyte counts result in data set [1] (0.025 mg/kg and 0.05 mg/kg, 1 week) is reported as “concomitant decrease in leukocyte counts”. Further, the “hematocrit, WBC counts and reticulocyte counts” value in data set [1] (FV-induced leukemia, FIG. 3C) is given as “significantly decreased”. The “LSCs (M34+Sca1+Kit+) in the spleen” value in data set [1] (flow cytometry after 1 week i.p. treatment) was “complete ablation”. Also, in data set [1] (mouse, in vivo), the “hematological parameters (complete blood counts) versus untransplanted control mice” value was “does not adversely affect hematological parameters” and the “pChk2 levels in total spleen extracts” value is given as “increase in the levels of pChk2”. For the same molecule, the splenomegaly result in data set [1] (Δ^12-PGJ3 0.025 and 0.05 mg/kg, comparators 0.05 mg/kg, i.p. 1 week) was “significantly decreased splenomegaly”. Also, the “p53 mRNA” value in the data set on p53 is recorded as “increase in p53 transcription”. Further, in data set [2], the “PPARγ activation in reporter assay” value is recorded as “unable to activate PPARγ”. Further, in data set [3], the “targeting of imatinib-resistant GFP+ LSCs” value is on record as “can even target LSCs that are resistant to imatinib treatment”. For the same molecule, in the data set with NF-κB [4], the “NF-κB pathway, gel shift” value was “did not affect the NF-κB pathway”. In data set [5] (25 nM), the “increase in apoptosis of FV-LSCs” value is given as roughly 75%. Also, the “apoptosis of FV-LSCs, dose response” value in data set [5] (annexin V) is given as “identical effect”. In addition, in the data set with NF-κB [6], the “NF-κB activation, EMSA and Western blot of nuclear extracts” value is “lack of activation of NF-κB”. In addition, the “apoptosis of BCR-ABL+LSCs” value in data set [7] (25 nM, annexin V, caspase 3 and caspase 8 activation) was “significant increase in apoptosis; also recorded: highly susceptible to apoptosis”. Moreover, the “apoptosis of Sca1+GFP+Kit+ BCR-ABL+LSC from spleen” value in data set [7] (25-1000 nM, 36 h) is “significantly increased their apoptosis”. The IC50 (in general, the concentration at which inhibition is half-maximal) in data set [7] (Kit+Sca1+Lin−GFP+ LSCs from spleen of BCR-ABL mice, ex vivo 36 h, annexin V) is roughly 12 nM.
